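These data come from cells grown in 96-well plates and exposed to compound for 48 hours at five concentrations. TGI denotes the concentration required for complete inhibition of growth.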
Tests used:
Experiment in all cases: growth of human tumour cells (NCI), 48 h
[1] = system: 786-0 renal
[2] = system: A498 renal
[3] = system: A549 NSCLC
[4] = system: ACHN renal
[5] = system: CCRF-CEM leukemia
[6] = system: COLO 205 colon
[7] = system: DLD-1 colon
[8] = system: DMS 114 small cell lung
[9] = system: DMS 273 small cell lung
[10] = system: EKVX NSCLC
[11] = system: HCC-2998 colon
[12] = system: HCT-116 colon
[13] = system: HCT-15 colon
[14] = system: HL-60(TB) leukemia
[15] = system: HOP-18 NSCLC
[16] = system: HOP-62 NSCLC
[17] = system: HOP-92 NSCLC
[18] = system: HT29 colon
[19] = system: IGROV1 ovarian
[20] = system: K-562 leukemia
[21] = system: KM12 colon
[22] = system: KM20L2 colon
[23] = system: LOX IMVI melanoma
[24] = system: LXFL 529 NSCLC
[25] = system: M14 melanoma
[26] = system: M19-MEL melanoma
[27] = system: MALME-3M melanoma
[28] = system: MOLT-4 leukemia
[29] = system: NCI-H226 lung
[30] = system: NCI-H23 lung
[31] = system: NCI-H460 lung
[32] = system: NCI-H522 lung
[33] = system: OVCAR-3 ovarian
[34] = system: OVCAR-4 ovarian
[35] = system: OVCAR-5 ovarian
[36] = system: OVCAR-8 ovarian
[37] = system: RPMI-8226 leukemia
[38] = system: RXF 393 renal
[39] = system: SF-268 CNS
[40] = system: SF-295 CNS
[41] = system: SF-539 CNS
[42] = system: SK-MEL-2 melanoma
[43] = system: SK-MEL-28 melanoma
[44] = system: SK-MEL-5 melanoma
[45] = system: SK-OV-3 ovarian
[46] = system: SN12C renal
[47] = system: SNB-19 CNS
[48] = system: SNB-75 CNS
[49] = system: SNB-78 CNS
[50] = system: SW-620 colon
[51] = system: TK-10 renal
[52] = system: U251 CNS
[53] = system: UACC-257 melanoma
[54] = system: UACC-62 melanoma
[55] = system: UO-31 renal
[56] = system: CAKI-1 renal
[57] = system: XF 498 CNS

Work on `Cc1cc(=O)[nH]c(CNC(=O)c2cccc(C(=O)NCc3cc(=O)[nH]c(C)n3)c2)n1` yielded a TGI [1] of over 100 µM, a TGI [2] of over 100 µM and a TGI [3] of over 100 µM. For the same compound, the TGI [4] was over 100 µM, the TGI [5] was over 100 µM and the TGI [6] was over 100 µM. For the same compound, the TGI [7] was over 100 µM, the TGI [8] was over 100 µM and the TGI [9] was over 100 µM. It also gave a TGI [10] of over 100 µM, a TGI [11] of over 100 µM and a TGI [12] of over 100 µM. The TGI [13] was over 100 µM, the TGI [14] was over 100 µM and the TGI [15] was over 100 µM. The TGI [16] was over 100 µM, the TGI [17] was over 100 µM and the TGI [18] was over 100 µM. The TGI [19] was over 100 µM, the TGI [20] was over 100 µM and the TGI [21] was over 100 µM. It also gave a TGI [22] of over 100 µM, a TGI [23] of over 100 µM and a TGI [24] of over 100 µM. It also gave a TGI [25] of over 100 µM, a TGI [26] of over 100 µM and a TGI [27] of over 100 µM. For the same compound, the TGI [28] was over 100 µM, the TGI [29] was over 100 µM and the TGI [30] was over 100 µM. For the same compound, the TGI [31] was over 100 µM, the TGI [32] was over 100 µM and the TGI [33] was over 100 µM. The TGI [34] was over 100 µM, the TGI [35] was over 100 µM and the TGI [36] was over 100 µM. It also gave a TGI [37] of over 100 µM, a TGI [38] of over 100 µM and a TGI [39] of over 100 µM. It also gave a TGI [40] of over 100 µM, a TGI [41] of over 100 µM and a TGI [42] of over 100 µM. The TGI [43] was over 100 µM, the TGI [44] was over 100 µM and the TGI [45] was over 100 µM. It also gave a TGI [46] of over 100 µM, a TGI [47] of over 100 µM and a TGI [48] of over 100 µM. It also gave a TGI [49] of over 100 µM, a TGI [50] of over 100 µM and a TGI [51] of over 100 µM. For the same compound, the TGI [52] was over 100 µM, the TGI [53] was over 100 µM and the TGI [54] was over 100 µM. For the same compound, the TGI [55] was over 100 µM.
Compound `C=CCOC(=O)C1CCC(=O)N1C(=O)C(Cl)Cl` (stereo not given) has a TGI [1] of over 100 µM, a TGI [2] of over 100 µM and a TGI [3] of over 100 µM. For the same compound, the TGI [4] was over 100 µM, the TGI [56] was over 100 µM and the TGI [5] was over 100 µM. It also gave a TGI [6] of over 100 µM, a TGI [7] of over 100 µM and a TGI [8] of over 100 µM. For the same compound, the TGI [9] was over 100 µM, the TGI [10] was over 100 µM and the TGI [11] was over 100 µM. For the same compound, the TGI [12] was over 100 µM, the TGI [13] was over 100 µM and the TGI [14] was over 100 µM. For the same compound, the TGI [15] was over 100 µM, the TGI [16] was over 100 µM and the TGI [17] was over 100 µM. It also gave a TGI [18] of over 100 µM, a TGI [19] of over 100 µM and a TGI [20] of over 100 µM. It also gave a TGI [21] of over 100 µM, a TGI [22] of over 100 µM and a TGI [23] of over 100 µM. For the same compound, the TGI [24] was over 100 µM, the TGI [25] was over 100 µM and the TGI [26] was over 100 µM. The TGI [27] was over 100 µM, the TGI [28] was over 100 µM and the TGI [29] was over 100 µM. The TGI [30] was over 100 µM, the TGI [31] was over 100 µM and the TGI [32] was over 100 µM. It also gave a TGI [33] of over 100 µM, a TGI [34] of over 100 µM and a TGI [35] of over 100 µM. For the same compound, the TGI [36] was over 100 µM, the TGI [37] was over 100 µM and the TGI [39] was over 100 µM. It also gave a TGI [40] of over 100 µM, a TGI [42] of over 100 µM and a TGI [43] of over 100 µM. For the same compound, the TGI [44] was over 100 µM, the TGI [45] was over 100 µM and the TGI [46] was over 100 µM. It also gave a TGI [47] of over 100 µM, a TGI [48] of over 100 µM and a TGI [49] of over 100 µM. For the same compound, the TGI [50] was over 100 µM, the TGI [51] was over 100 µM and the TGI [52] was over 100 µM. It also gave a TGI [53] of over 100 µM, a TGI [54] of over 100 µM and a TGI [55] of over 100 µM. For the same compound, the TGI [57] was 33.2 µM.
